This assay addresses T1, tyrosinekinase du récepteur de l'EGF (Epidermal Growth Factor) (Homo sapiens, UniProt P00533).
T1 construct: On utilise des membranes de cellules A431 (ATCC CRL 1555) comme source de récepteurs de l'EGF; host or cells: A431 cell membranes
Kind of assay: Inhibition of EGF receptor tyrosine kinase (A431 cell membranes, 32P incorporation into poly(Glu, Ala, Tyr 6:3:1)). As to conditions: A431 cell membranes (ATCC CRL 1555); samples containing substrate poly(Glu, Ala, Tyr 6:3:1) and EGF; 15 minutes at 30°C; dilution series starting at 51 microgrammes/ml; read-out: CI₅₀ (converted). Type of assay: biochemical. The protocol:
Mesure de l'inhibition de la tyrosinekinase du récepteur de l'EGF (Epidermal Growth Factor).
Cette lignée cellulaire exprime à sa surface un grand nombre de récepteur de l'EGF qui possèdent une activité tyrosinekinase.
Ces cellules sont préincubées avec ou sans EGF (1000 nM) pendant 15 minutes et ajoutées au tampon HEPES (acide N-2-hydroxyéthyl-piperazine N'-2-éthanesulfonique) correspondant (avec ou sans EGP) et contenant des ions Mg²⁺ (10 mM) et Mn²⁺ (2 mM) 0,2 % de triton X-100, de l'orthovanadate de sodium (20 micromoles) et l'inhibiteur.
Des échantillons contenant ou ne contenant pas le substrat poly(Glu, Ala, Tyr 6 : 3 : 1) sont préparés. On initie la réaction par addition de [gamma³²P] ATP (32 micromoles). Après incubation pendant 15 minutes à 30°C les échantillons sont précipités à l'aide d'acide […] à 10 %, filtrés sur membrane Millipore ® et le ³²P incorporé est mesuré avec un compteur de scintillation liquide.
T1 sequence (P00533 25-1210): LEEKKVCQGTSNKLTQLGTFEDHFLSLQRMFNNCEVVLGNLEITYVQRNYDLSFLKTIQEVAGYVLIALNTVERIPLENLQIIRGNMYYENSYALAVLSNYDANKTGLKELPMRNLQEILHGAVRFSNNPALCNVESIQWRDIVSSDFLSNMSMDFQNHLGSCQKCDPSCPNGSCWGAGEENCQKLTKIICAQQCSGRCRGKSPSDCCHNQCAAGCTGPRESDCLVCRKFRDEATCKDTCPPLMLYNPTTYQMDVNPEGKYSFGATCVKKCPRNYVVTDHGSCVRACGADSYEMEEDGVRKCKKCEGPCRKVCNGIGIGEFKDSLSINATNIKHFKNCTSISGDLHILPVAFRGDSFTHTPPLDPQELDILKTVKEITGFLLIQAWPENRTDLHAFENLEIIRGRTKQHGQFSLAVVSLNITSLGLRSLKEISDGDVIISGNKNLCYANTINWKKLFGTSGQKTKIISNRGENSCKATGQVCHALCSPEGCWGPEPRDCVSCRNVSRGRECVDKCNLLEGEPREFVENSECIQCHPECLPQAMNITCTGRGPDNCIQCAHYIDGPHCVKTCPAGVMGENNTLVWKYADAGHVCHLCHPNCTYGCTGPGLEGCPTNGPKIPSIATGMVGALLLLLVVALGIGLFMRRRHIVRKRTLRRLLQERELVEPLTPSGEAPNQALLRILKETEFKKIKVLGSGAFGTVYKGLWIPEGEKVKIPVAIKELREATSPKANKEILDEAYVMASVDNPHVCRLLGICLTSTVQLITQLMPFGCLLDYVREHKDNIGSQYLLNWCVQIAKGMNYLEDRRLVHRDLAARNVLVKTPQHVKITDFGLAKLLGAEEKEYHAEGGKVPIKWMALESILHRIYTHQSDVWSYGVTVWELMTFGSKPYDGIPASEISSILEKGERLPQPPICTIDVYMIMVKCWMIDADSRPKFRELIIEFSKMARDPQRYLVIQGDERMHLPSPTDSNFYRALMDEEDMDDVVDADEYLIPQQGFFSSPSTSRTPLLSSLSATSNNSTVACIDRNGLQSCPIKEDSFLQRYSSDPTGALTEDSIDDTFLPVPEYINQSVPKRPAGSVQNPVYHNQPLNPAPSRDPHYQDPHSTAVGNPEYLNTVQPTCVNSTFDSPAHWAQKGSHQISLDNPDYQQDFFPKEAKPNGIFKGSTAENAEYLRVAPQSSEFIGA
With `Oc1ccc(CC2NCCc3cc(O)c(O)cc32)cc1O` (stereo not drawn) [Produit A, 1-[(3,4-dihydroxyphényl)méthyl] 1,2,3,4-tétrahydro isoquinoléïne 6,7-diol], the IC50 is 3.83 µM.
With `Oc1ccc2[nH]c3c(c2c1)CCNC3Cc1ccc(O)c(O)c1` (stereo not drawn) [Produit B, 1,2-benzènediol 4-(2,3,4,9-tétrahydro 6-hydroxy-1H-pyrido[3,4-b]indol 1-yl) méthyl] the figure was 8.06 µM; with `Oc1cc2c(cc1O)CC(Cc1ccccc1)NC2` (stereo not drawn) [Produit de l'exemple 1, Bromhydrate du 3-phénylméthyl 1,2,3,4-tétrahydro, isoquinoléïne 6,7-diol], 13.3 µM.
